Laboratory results taken from US8772500B2, “TRPV3 modulators” (AbbVie Inc., priority 2011, dated 2014).

Columns and labels:
human TRPV3 = target: T1, human TRPV3 (Homo sapiens, UniProt Q8NET8); assay: In vitro antagonism of recombinant human TRPV3 activation (FLIPR Tetra calcium assay, 2-APB as agonist); type: cell-based; details: HEK293 cells stably expressing human TRPV3; 2-APB 80 μM; range class; read-out: IC50 (reported range)
T1 construct: expressed in transfected cells
T1 sequence (Q8NET8 1-790): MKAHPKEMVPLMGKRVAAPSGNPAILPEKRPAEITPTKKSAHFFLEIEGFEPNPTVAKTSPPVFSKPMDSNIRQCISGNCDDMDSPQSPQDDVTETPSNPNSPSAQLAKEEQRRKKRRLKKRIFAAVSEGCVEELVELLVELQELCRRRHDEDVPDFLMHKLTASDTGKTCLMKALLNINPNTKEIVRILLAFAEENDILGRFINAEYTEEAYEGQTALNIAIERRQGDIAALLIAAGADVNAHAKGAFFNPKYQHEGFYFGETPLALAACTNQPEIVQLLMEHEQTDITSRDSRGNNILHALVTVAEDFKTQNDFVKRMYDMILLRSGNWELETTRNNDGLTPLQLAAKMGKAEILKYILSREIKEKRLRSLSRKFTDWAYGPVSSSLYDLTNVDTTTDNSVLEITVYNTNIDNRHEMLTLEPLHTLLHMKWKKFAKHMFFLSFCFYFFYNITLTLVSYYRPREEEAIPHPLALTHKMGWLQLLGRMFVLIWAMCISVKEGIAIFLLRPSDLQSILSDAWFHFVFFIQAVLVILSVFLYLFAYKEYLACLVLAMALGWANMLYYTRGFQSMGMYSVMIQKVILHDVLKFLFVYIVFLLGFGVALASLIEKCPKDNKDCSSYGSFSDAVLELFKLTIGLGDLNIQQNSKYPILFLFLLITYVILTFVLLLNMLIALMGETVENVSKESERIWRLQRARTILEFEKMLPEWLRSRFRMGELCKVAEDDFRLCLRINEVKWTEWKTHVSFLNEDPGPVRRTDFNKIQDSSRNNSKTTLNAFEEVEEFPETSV
In short: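 Readout is FLIPR fluorescence, max minus min as percent of uninhibited 2-APB response, giving IC50 (usually mean of ≥2 runs). Stable human TRPV3 HEK293 cells, Calcium-4 dye-loaded, got test compound then, three minutes later, 80 μM 2-APB (EC80); run length 10 min.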

[1] = In vitro human microsomal stability assay; type: in vitro ADME
In short: (§1)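 Compounds were incubated at 37 °C with Sprague-Dawley rat liver microsomes (rat assay) or human liver microsomes (human assay) to measure metabolic stability. NADPH was added, including to the time-zero samples.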

[2] = In vitro rat microsomal stability assay; type: in vitro ADME, rat (Sprague-Dawley)
In short: as §1

[3] = Sprague-Dawley, rat, 0.5 h, 0.5 μM, pH 7.4
[4] = 0.5 μM substrate, 0.25 mg/mL microsomal protein, pH 7.4, 37° C., NADPH, 30 minutes

| Structure (SMILES) | IC50 (human TRPV3) [µM] | HUMAN MICROSOMAL STABILITY (% REMAINING AFTER 30 MINUTES) ([1]; human, 0.5 h, 0.5 μM, pH 7.4) [%] | RAT MICROSOMAL STABILITY (% REMAINING AFTER 30 MINUTES) [2, 3] [%] | HUMAN MICROSOMAL STABILITY (% REMAINING AFTER 30 MINUTES) [1, 4] [%] | RAT MICROSOMAL STABILITY (% REMAINING AFTER 30 MINUTES) [2, 4] [%] |
| --- | --- | --- | --- | --- | --- |
| Nc1cccnc1C(O)C1(c2ccc(Cl)c(Cl)c2)CCC1 (stereo not drawn) [Example 130, (3-aminopyridin-2-yl) [1-(3,4-dichlorophenyl)cyclobutyl]methanol] | 1.1 to 5 | 4.0 | <0.01 |  |  |
| OC1CC(c2ccc(OC(F)(F)F)cc2)(C(O)c2ccccn2)C1 [Example 132, (trans)-3-[(S)-hydroxy(pyridin-2-yl)methyl]-3-[4-(trifluoromethoxy)phenyl]-cyclobutanol] | 5.1 to 20 | 81 | 72 |  |  |
| OC(c1ccccn1)C1(c2ccc(C(F)(F)F)cc2)CC(F)(F)C1 (stereo not drawn) [Example 133, {3,3-difluoro-1-[4-(trifluoromethyl)phenyl]cyclobutyl}(pyridin-2-yl)-methanol] | 0.05 to 0.5 | 73 | 61 |  |  |
| O[C@H](c1ccccn1)[C@@]1(c2ccc(Cl)c(Cl)c2)CCO1 [Example 135, (R)-[(2S)-2-(3,4-dichlorophenyl)oxetan-2-yl](pyridin-2-yl)methanol] | 0.501 to 1 | 33 | 3.4 |  |  |
| O[C@H](c1ccccn1)[C@]1(c2ccc(Cl)c(Cl)c2)CCO1 [Example 136, (R)-[(2R)-2-(3,4-dichlorophenyl)oxetan-2-yl](pyridin-2-yl)methanol] | 0.05 to 0.5 | 24 | 9.5 |  |  |
| OC(c1ccccn1)C1(c2ccc(C(F)(F)F)cn2)CC(F)(F)C1 (stereo not drawn) [Example 137, {3,3-difluoro-1-[5-(trifluoromethyl)pyridin-2-yl]cyclobutyl}(pyridin-2-yl)-methanol] | 1.1 to 5 | 77 | >85 |  |  |
| OC(c1ccccn1)C1(c2ccc(Cl)c(C(F)(F)F)c2)CC(F)(F)C1 (stereo not drawn) [Example 138, {1-[4-chloro-3-(trifluoromethyl)phenyl]-3,3-difluorocyclobutyl}(pyridin-2-yl)methanol] | 0.501 to 1 | 41 | 18 |  |  |
| OC(c1ccccn1)C1(c2ccc(F)c(C(F)(F)F)c2)CC(F)(F)C1 (stereo not drawn) [Example 139, {3,3-difluoro-1-[4-fluoro-3-(trifluoromethyl)phenyl]cyclobutyl}(pyridin-2-yl)methanol] | 0.501 to 1 | 41 | 26 |  |  |
| CN1CCC(c2ccc(OC(F)(F)F)cc2)(C(O)c2ccccn2)CC1 (stereo not drawn) [Example 145, {1-methyl-4-[4-(trifluoromethoxy)phenyl]piperidin-4-yl}(pyridin-2-yl)-methanol] | 1.1 to 5 |  |  | 68 | 42 |
| CN1CCC(c2cccc(OC(F)(F)F)c2)(C(O)c2ccccn2)CC1 (stereo not drawn) [Example 146, {1-methyl-4-[3-(trifluoromethoxy)phenyl]piperidin-4-yl}(pyridin-2-yl)-methanol] | 5.1 to 20 |  |  | 84 | 8.9 |
| OC(c1ccccn1)C1(c2cccc(OC(F)(F)F)c2)CCNCC1 (stereo not drawn) [Example 148, pyridin-2-yl{4-[3-(trifluoromethoxy)phenyl]piperidin-4-yl}methanol] | 1.1 to 5 |  |  | >85 | 53 |
| CN1CCC(c2ccccc2OC(F)(F)F)(C(O)c2ccccn2)CC1 (stereo not drawn) [Example 149, {1-methyl-4-[2-(trifluoromethoxy)phenyl]piperidin-4-yl}(pyridin-2-yl)-methanol] | 5.1 to 20 |  |  | >85 | 62 |
| COC1CC(c2ccc(Cl)c(Cl)c2)(C(O)c2ccccn2)C1 [Example 150, (S)-[cis-1-(3,4-dichlorophenyl)-3-methoxycyclobutyl](pyridin-2-yl)methanol] | 1.1 to 5 | 42 | <0.01 |  |  |
| COC1CC(c2ccc(Cl)c(Cl)c2)([C@H](O)c2ccccn2)C1 (stereo partly drawn) [Example 151, (S)-[1-(3,4-dichlorophenyl)-3-methoxycyclobutyl](pyridin-2-yl)methanol] | 1.1 to 5 | 32 | <0.01 |  |  |
| OC(c1ccccn1)C1(c2ccc(C(F)(F)F)cc2)CNC1 (stereo not drawn) [Example 152, pyridin-2-yl{3-[4-(trifluoromethyl)phenyl]azetidin-3-yl}methanol] | 5.1 to 20 | >85 | >85 |  |  |
| CC(C)(C)OC(=O)N1CC(c2ccc(C(F)(F)F)cc2)(C(O)c2ccccn2)C1 (stereo not drawn) [Example 153, tert-butyl 3-[hydroxy(pyridin-2-yl)methyl]-3-[4-(trifluoromethyl)phenyl]-azetidine-1-carboxylate] | 5.1 to 20 | 49 | 21 |  |  |
| O[C@H](c1ccccn1)C1(c2ccc(C(F)(F)F)cc2)CC(F)(F)C1 [Example 154, (S)-{3,3-difluoro-1-[4-(trifluoromethyl)phenyl]cyclobutyl}(pyridin-2-yl)-methanol] | 0.05 to 0.5 | 56 | 78 |  |  |
| CN1CC(c2ccc(C(F)(F)F)cc2)(C(O)c2ccccn2)C1 (stereo not drawn) [Example 155, {1-methyl-3-[4-(trifluoromethyl)phenyl]azetidin-3-yl}(pyridin-2-yl)methanol] | 5.1 to 20 | >85 | 76 |  |  |
| O[C@@H](c1ccccn1)C1(c2ccc(OC(F)(F)F)cc2)CC(F)(F)C1 [Example 159, (R)-{3,3-difluoro-1-[4-(trifluoromethoxy)phenyl]cyclobutyl}(pyridin-2-yl)methanol] | 1.1 to 5 | 45 | 65 |  |  |
| O=C1CC(c2ccc(C(F)(F)F)cc2)(C(O)c2ccccn2)C1 (stereo not drawn) [Example 160, 3-[hydroxy(pyridin-2-yl)methyl]-3-[4-(trifluoromethyl)phenyl]cyclobutanone] | 5.1 to 20 | >85 | 60 |  |  |
| OC(c1ccccn1)C1(c2ccc(C(F)(F)F)cc2)CC2(C1)OCCO2 (stereo not drawn) [Example 161, pyridin-2-yl{2-[4-(trifluoromethyl)phenyl]-5,8-dioxaspiro[3.4]oct-2-yl}-methanol] | 1.1 to 5 | 61 | <0.01 |  |  |
| OC(c1ccccn1)C1(C2CCCCC2)CCC1 (stereo not drawn) [Example 162, (1-cyclohexylcyclobutyl)(pyridin-2-yl)methanol] | 1.1 to 5 | 0.02 | <0.01 |  |  |
| OC(c1ccccn1)C1(C2CCCC2)CCC1 (stereo not drawn) [Example 163, (1-cyclopentylcyclobutyl)(pyridin-2-yl)methanol] | 1.1 to 5 | 0.11 | <0.01 |  |  |
